Results taken from patent EP3192802A1, “STABILIZED PEPTIDE DERIVATIVES” (Bicycle Therapeutics Limited, priority 2016, dated 2017).

Tests used:
[1] = molecular target: T1, MT1-MMP (Homo sapiens, UniProt P50281); assay: fluorescence polarisation competition experiments (affinity to MT1-MMP); format: binding; details: tris-sulfone version, Figure 2
Experimental: Subsequently, the affinity to the MT1-MMP target was measured by fluorescence polarisation competition experiments for 17-69-07-N241, and its sulfone versions (Figure 2).

[2] = molecular target: T1, MT1-MMP; assay: selectivity / cross-reactivity against other MMPs; format: binding; details: does not cross-react with MMP-1, MMP-2, MMP-15 and MMP-16

| Compound | Kd [1] [nM] | selectivity for MT1-MMP [2] |
| --- | --- | --- |
| C[C@H](NC(=O)CN(C)C(=O)CN(C)C(=O)CN(C)C(=O)CN(C)C(=O)CN(C)C(=O)CN(C)C(=O)CN(C)C(=O)CN(C)C(=O)CN(C)C(=O)CN(C)C(=O)CCN)C(=O)N[C@H]1CS(=O)(=O)Cc2cc3cc(c2)CS(=O)(=O)C[C@H](NC(=O)[C@@H](C)NC(=O)[C@H](Cc2cccc4ccccc24)NC(=O)[C@H](CCC(=O)O)NC(=O)[C@H](CC(N)=O)NC(=O)[C@@H](C)NC1=O)C(=O)N[C@@H](CCC(=O)O)C(=O)N[C@@H](CC(=O)O)C(=O)N[C@@H](Cc1ccccc1)C(=O)N[C@@H](Cc1ccc(O)cc1)C(=O)N[C@@H](CC(=O)O)C(=O)N[C@@H](C(C)(C)C)C(=O)N[C@H](C(N)=O)CS(=O)(=O)C3 [17-69-07-N338] | ~10 |  |
| -Ci-Y-N-E-F-G-Cii-E-D-F-Y-D-I-Ciii- [17-69-07] |  | uniquely selective for MT1-MMP |
